Data taken from patent US6946472B2, “Polycyclic compounds exhibiting anti-tumor activities” (Hoffman-La Roche Inc., priority 2002, dated 2005).

test system: HCT116 cell line (colorectal cancer); assay: Anti-proliferative activity assay (WST-8); format: cell-based; details: Homo sapiens, HCT-116, 96 h; in vitro growth of HCT116, 4 days incubation, WST-8, concentration yielding 50% OD of control growth
Method: A single suspension of tumor cells was inoculated to the serially diluted 96-well microtestplate. Then the testplate was incubated in the 5% CO2 ambience at 37° C. for 4 days (2-3×10^3 cells/well). The degree of cell growth in a monolayer was measured by using WST-8 (Dojindo, Japan). IC50 values of the polycyclic compounds directed against tumor cells were calculated as the concentration of drug yielding 50% OD of the control growth.
The anti-tumor activity of polycyclic compounds of the formula [I] against in vitro growth of HCT116 cell line (colorectal cancer) is summarized in Table 1.

SMILES	IC50 [nM]
CN(C)CCNc1nc2cc(O)ccc2c2c1C(=O)c1ccccc1-2 [Reference compound, 6-(2-dimethylamino-ethylamino)-3-hydroxy-7H-indeno[2,1-c]quinolin-7-one, reference compound]	12
CN(CCCN(C)CCNc1nc2cc(Cl)ccc2c2c1C(=O)c1cnccc1-2)CCNc1nc2cc(Cl)ccc2c2c1C(=O)c1cnccc1-2 [Example 6, 3-chloro-6-{2-[(3-{[2-(3-chloro-7-oxo-7H-5,9-diaza-benzo[c]fluoren-6-ylamino)-ethyl]-methyl-amino}-propyl)-methyl-amino]-ethylamino}-5,9-diaza-benzo[c]fluoren-7-one]	0.02
CN(CCCN(C)CCNc1nc2ccccc2c2c1C(=O)c1ccncc1-2)CCNc1nc2ccccc2c2c1C(=O)c1ccncc1-2 [Example 10, 6-{2-[methyl-(3-{methyl-[2-(7-oxo-7H-5,10-diaza-benzo[c]fluoren-6-ylamino)-ethyl]-amino}-propyl)-amino]-ethylamino}-5,10-diaza-benzo[c]fluoren-7-one]	0.3

Second part, the molecule after the results:

IC50 [nM]	SMILES
0.13	CN(CCCN(C)CCNc1nc2ccccc2c2c1C(=O)c1ccncc1-2)CCNc1nc2ccccc2c2c1C(=O)c1cnccc1-2 [Example 15, 6-{2-[methyl-(3-{methyl-[2-(7-oxo-7H-5,10-diaza-benzo[c]fluoren-6-ylamino)-ethyl]-amino}-propyl)-amino]-ethylamino}-5,9-diaza-benzo[c]fluoren-7-one]
0.08	COc1ccc2c3c(c(NCCN(C)CCCN(C)CCNc4nc5ccccc5c5c4C(=O)c4cnccc4-5)nc2c1)C(=O)c1cnccc1-3 [Example 16, 3-methoxy-6-{2-[methyl-(3-{methyl-[2-(7-oxo-7H-5,9-diaza-benzo[c]fluoren-6-ylamino)-ethyl]-amino}-propyl)-amino]-ethylamino}-5,9-diaza-benzo[c]fluoren-7-one]
0.64	CN(CCCN(C)CCNc1nc2ccccc2c2c1C(=O)c1cnccc1-2)CCNc1nc2ccccc2c2c1C(=O)c1cnccc1-2 [Example 5, 6-{2-[methyl-(3-{methyl-[2-(7-oxo-7H-5,9-diaza-benzo[c]fluoren-6-ylamino)-ethyl]-amino}-propyl)-amino]-ethylamino}-5,9-diaza-benzo[c]fluoren-7-one]
